Assays:
[1] = tested on: Tocilizumab; experiment: Microtiter plate chromatography of resins: binding and elution of Tocilizumab; details: fraction of injected protein bound; 0.5 mg/ml IgG in PBS pH 7.3
Summary of the method: (§1)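 About 30 μl resin columns loaded with 3.3 cv IgG at 0.5 mg ml^−1 in PBS (or undiluted HCP), washed with 5 cv PBS, eluted with 5 cv glycine pH 2.5. Fractions quantified by Bradford; bound fraction = (mi−mft)/mi, yield = me/mi.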

[2] = Alkaline stability of ligands in 0.5 M sodium hydroxide; assay type: physicochemical; details: 25° C., 8 days, hydrolysis monitored by LC-MS, read-out: t0.5 (half-life) (converted)
Protocol: A subset of ligands from Example 1 was tested for its alkaline stability. Ligands were treated with 0.5 M sodium hydroxide at 25° C. for 8 days. Hydrolysis was monitored by LC-MS analysis.

[3] = molecular target: T1, Bevacizumab (Homo sapiens, UniProt P01857); experiment: Langmuir isotherms by batch adsorption; assay type: binding; details: for Kd: Bevacizumab 0.05-5 mg/ml in PBS pH 7.3, 25° C., at least 3 h, read-out: kd (dissociation constant, Langmuir isotherm) (converted); for qm (maximum capacity): mg Bevacizumab per ml of resin, Langmuir isotherm
T1 construct: 0.5 mg/ml IgG in PBS pH 7.3; ligand immobilized on SEPHAR; Bevacizumab Yield; other: mass eluted (glycine pH 2.5) / mass injected; kd (dissociation constant, Langmuir isotherm); other: Bevacizumab 0.05-5 mg/ml in PBS pH 7.3, 25° C., at least 3 h; qm (maximum capacity); other: mg Bevacizumab per ml of resin; Langmuir isotherm; t0; fused on or other part: Humanized anti-VEGF-A VH domain joined N-terminally to the IGHG1 constant region (engineered, no UniProt entry)
Protocol: Experiments were performed with Bevacizumab as antibody. Parameters of Langmuir isotherms for purified antibody were determined by batch adsorption experiments in 96-well microtiter plates. In each well, 10 μl of sorbent slurry (50% v/v) were mixed with 100 μl of protein solution. Initial concentrations varied from 0.05-5 mg/ml in phosphate-buffered saline (0.15 M NaCl, 20 mM phosphate buffer, pH 7.3; PBS). Reactions were agitated vigorously at 25° C. for at least 3 h. Afterwards, antibody concentration in the supernatants were measured by Bradford assay. Data was evaluated by direct fitting of the values with the Langmuir isotherm equation (1).
Parameters of Langmuir isotherms, i.e. dissociation constants Kd and maximum capacities qm, were determined from the measured concentrations in the supernatants. Parameters were estimated by numerical fitting of the model equation derived by Chase (1)

[4] = tested on: poly-IgG from human serum (h-poly-IgG); experiment: Microtiter plate chromatography of resins: binding and elution of human poly-IgG; details: fraction of injected protein bound; 0.5 mg/ml IgG in PBS pH 7.3
Summary of the method: as §1

[5] = tested on: Cetuximab; experiment: Microtiter plate chromatography of resins: binding and elution of Cetuximab; details: fraction of injected protein bound; 0.5 mg/ml IgG in PBS pH 7.3
Summary of the method: as §1

[6] = molecular target: T1, Bevacizumab; experiment: Uptake kinetics by batch adsorption (time-scale of binding); details: time after which 80% of equilibrium saturation occurred; 0.75 mg/ml Bevacizumab in PBS, 25° C.
Protocol: Uptake kinetics was investigated similarly by batch adsorption in 96-well filter plates. Again, 10 μl of sorbent slurry (50% v/v) were mixed with 100 μl of protein solution. […] Reactions were agitated vigorously at 25° C. for up to 80 min. Supernatants were separated rapidly by spinning through filters after 2.5, 5, 10, 20, 40 and 80 minutes and sampled for analysis. Concentrations of the antibody were analyzed by Bradford assay.
For determination of t0.8, measured concentrations in the supernatant were interpolated by fitting of double-exponentials and values of t0.8 were read out from graphs (2).

[7] = tested on: Palivizumab; experiment: Microtiter plate chromatography of resins: binding and elution of Palivizumab; details: fraction of injected protein bound; 0.5 mg/ml IgG in PBS pH 7.3
Summary of the method: as §1

[8] = molecular target: T1, Bevacizumab; experiment: Microtiter plate chromatography of resins: binding and elution of Bevacizumab; details: for Bevacizumab Bound: fraction of injected protein bound, 0.5 mg/ml IgG in PBS pH 7.3, ligand immobilized on SEPHAROSE 4 FF; for Bevacizumab Yield: mass eluted (glycine pH 2.5) / mass injected
Summary of the method: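 About 30 μl packed resin columns loaded with 3.3 cv IgG at 0.5 mg ml^−1 in PBS or undiluted HCP, washed with 5 cv PBS, eluted with 5 cv glycine pH 2.5. Protein in fractions by Bradford. Bound fraction = (injected − flowthrough)/injected; yield = eluted/injected; selectivity = Bevacizumab bound fraction / HCP bound fraction, truncated beyond 10.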

[9] = tested on: host cell proteins (HCP); experiment: Microtiter plate chromatography of resins: binding of host cell proteins; set-up: species or system CHO cell culture; details: fraction of injected undiluted host cell proteins bound
Summary of the method: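 Undiluted HCP-containing flowthrough from protein A chromatography of CHO serum-free culture was loaded onto ~30 µl packed resin columns in microtiter-plate format. Columns were washed with 5 cv PBS and eluted with glycine pH 2.5, and fractions were quantified by Bradford. Bound fraction = (injected − flowthrough mass)/injected mass.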

Structure (SMILES)	Tocilizumab Bound [1] [%]	half-life [2] [days]	Kd [3] [µM]	qm (maximum capacity) [3] [mg/mL]	h-poly-IgG Bound [4] [%]	Cetuximab Bound [5] [%]	t0.8 (time-scale of binding) [6] [min]	Palivizumab Bound [7] [%]	Bevacizumab Bound [8] [%]	Bevacizumab Yield [8] [%]	HCP Bound [9] [%]
Cc1nc2cc(C(=O)Nc3nc(-c4ccccn4)cs3)ccc2n1CCCN [Ligand L42, 1-(3-Amino-1-propyl)-2-methylbenzimidazole-5-carboxylic acid N-[4-(2-pyridyl)thiazol-2-yl] amide]	100	> 41.6	318	45	100	100	7.6	97	100	98	13.5
NCCCn1cnc2cc(C(=O)Nc3nc(-c4ccccn4)cs3)ccc21 [Ligand L23, 1-(3-Amino-1-propyl)benzimidazole-5-carboxylic acid N-[4-(2-pyridyl)thiazol-2-yl] amide]	100	> 41.6	122	46	100	100	7.7	100	100	107	13
CCc1nnc(NC(=O)c2ccc3c(c2)ncn3CCCN)s1 [Ligand L07, 1-(3-Amino-1-propyl)benzimidazole-5-carboxylic acid N-(2-ethyl-1,3,4-thiadiazol-5-yl) amide]	100	> 41.6	200	38	94	100	8.8	90	100	93	23
Cn1nc(C(=O)Nc2ccc3c(c2)ncn3CCCN)c2ccccc21 [Ligand L01, 1-(3-Amino-1-propyl)-5-[(1-methylindazol-3-yl)carboxamido]benzimidazole]	100	35	210	40	100	100	9.2	99	100	90	33
NCCCn1cnc2cc(C(=O)Nc3nc(-c4cccnc4)cs3)ccc21 [Ligand L46, 1-(3-Amino-1-propyl)benzimidazole-5-carboxylic acid N-[4-(3-pyridyl)thiazol-2-yl] amide]	100	30	185	48	100	100	6.0	98	100	103	17
NCCCn1c(=O)[nH]c2cc(C(=O)Nc3nnc(-c4ccco4)s3)ccc21 [Ligand L24, 1-(3-Amino-1-propyl)-2-oxo-2,3-dihydrobenzimidazole-5-carboxylic acid N-[5-(2-furyl)-1,3,4-thiadiazol-2-yl] amide]	100	> 41.6	583	42	100	100	9.4	100	100	101	12
NCCCn1cnc2cc(NC(=O)c3cn4ccsc4n3)ccc21 [Ligand L30, 1-(3-Amino-1-propyl)-5-[(imidazo-[2,1-b]thiazol-6-yl)carboxamido]benzimidazole]	100	37.6	358	40	94	100	9.3	93	100	100	21
NCCCNc1ccc(C(=O)Nc2nc(-c3ccccn3)cs2)cn1 [Ligand L40, 6-[(3-Amino-1-propyl)amino]nicotinic acid N-[4-(2-pyridyl)thiazol-2-yl] amide]	99	32.6		39	98	100	9.2	89	100	101	20.5
NCCCNc1ccc(C(=O)Nc2nnc(-c3ccco3)s2)cn1 [Ligand L19, 6-[(3-Amino-1-propyl)amino]nicotinic acid N-[5-(2-furyl)-1,3,4-thiadiazol-2-yl]amide]	100	> 41.6	578	42	98	100	8.9	99	100	98	14
NCCCn1cnc2cc(C(=O)Nc3nncs3)ccc21 [Ligand L13, 1-(3-Amino-1-propyl)benzimidazole-5-carboxylic acid N-(1,3,4-thiadiazol-2-yl) amide]	100	> 41.6		37	97	100	7.0	97	100	98	21
NCCCn1cnc2cc(C(=O)Nc3nc(-c4ccncc4)cs3)ccc21 [Ligand L47, 1-(3-Amino-1-propyl)benzimidazole-5-carboxylic acid N-[4-(4-pyridyl)thiazol-2-yl] amide]	99	> 41.6	169	43	100	100	5.6	98	100	100	13
CCc1nc2cc(C(=O)Nc3nc(-c4ccccn4)cs3)ccc2n1CCCN [Ligand L43, 1-(3-Amino-1-propyl)-2-ethylbenzimidazole-5-carboxylic acid N-[4-(2-pyridyl)thiazol-2-yl] amide]	100	> 41.6	399	43	100	100	8.2	98	100	95	18
